In one data set the test system is Spodoptera littoralis. Kind of data set: Sprayed cotton leaf test, mortality of 1st instar larvae after 3 days. The conditions noted are these: for Observed % mortality Other ai: 3 days. Here is the method:
(§1) For Heliothis and Spodoptera testing cotton leaves were sprayed in a Berkhard Potter Tower, left to dry for 1 hour and then placed on the top of pots containing twenty 1st instar Heliothis virescens/Spodoptera littoralis larvae. These were stored in a test holding room at 25° C. for 3 days and the test species assessed for mortality. For aphid testing Leaf discs were cut from excised Chinese cabbage leaves and placed on agar in test pots. R2 Myzus persicae were transferred from the culture on radish cotyledons and left overnight. The dried cotyledons were removed, leaving approximately 20-25 aphids on each leaf disc. The pots were sprayed in a Berkhard Potter Tower. Once dry, ventilated lids were placed on the top. These were stored in a Weiss Room at 20° C. for 3 days and the test species assessed for mortality. All tests included a Synperonic NP8 control. […] Any increase in the expected amount of mortality may be attributed to synergism. This is calculated in the following way: Expected mortality from mixture=% mortality of mixture partner A+(100%−% mortality of A)*(% mortality of mixture partner B). The results are set out in Tables I-III.

Another data set concerns Heliothis virescens. The description is as above. Here is the method: as §1
Another data set relates to Myzus persicae. Kind of data set: Sprayed Chinese cabbage leaf disc aphid test, mortality after 3 days. The conditions noted are these: in Brassica rapa, foliar, 72 h. Here is the method: as §1
[1] abbreviates: Spodoptera littoralis, in Gossypium hirsutum, 72 h, read-out: Observed % mortality Gamma.
Where [2] appears, read: read-out: Observed % mortality Gamma.
Where [3] appears, read: read-out: Observed % mortality Other.

Values joined by “and” are separate entries in the source; they are usually repeats but may differ in a detail not shown here. Equal entries are not always repeated. Where two headings read alike, the source gives them in different places.

Turning to `CC1(C)[C@H](C(=O)O[C@H](C#N)c2cccc(Oc3ccccc3)c2)[C@@H]1/C=C(\Cl)C(F)(F)F` [Gamma, (S)-α-cyano-3-phenoxybenzyl (Z)-(1R,3R)-3-(2-chloro-3,3,3-trifluoro-1-propenyl)-2,2-dimethylcyclopropanecarboxylate], the mortality at 0.025 ppm in the data set on Spodoptera littoralis (setting [1]) came out at 0%. In addition, in the data set on Spodoptera littoralis (setting [1]), the mortality at 0.05 ppm came to 25%. In addition, in the data set on Spodoptera littoralis (setting [1]), the mortality at 0.1 ppm turned out to be 90%. In addition, the “Observed % mortality Gamma” value in the data set with Heliothis virescens (Gamma alone 0.25 ppm), in the data set with Heliothis virescens (Gamma alone 0.50 ppm) and with Heliothis virescens (Gamma alone 1.00 ppm) was 28% in each case. Further, the mortality at 0.25 ppm turned out to be 32% with Heliothis virescens (Heliothis virescens, in Gossypium hirsutum, 72 h, read-out: Observed % mortality Gamma, Gamma alone 0.25 ppm) and 70% in the data set with Myzus persicae (setting [2]). The mortality at 0.5 ppm in the data set on Heliothis virescens (Heliothis virescens, in Gossypium hirsutum, 72 h, read-out: Observed % mortality Gamma, Gamma alone 0.50 ppm) was 32%; in the data set with Myzus persicae (setting [2]), 69%. The mortality at 1 ppm in the data set on Heliothis virescens (Heliothis virescens, in Gossypium hirsutum, 72 h, read-out: Observed % mortality Gamma, Gamma alone 1.00 ppm) was determined as 46%; with Myzus persicae (setting [2]) it was 98%.

Take `CN1COCN(Cc2cnc(Cl)s2)/C1=N\[N+](=O)[O-]` [Thiamethoxam, thiamethoxam]: in the data set with Myzus persicae (setting [3]), the mortality at 1.25 ppm was 70%, the mortality at 2.5 ppm is 92% and the mortality at 5 ppm is 94%.

In the case of abamectin, the “Observed % mortality Other ai” value in the data set on Heliothis virescens (other ai alone 0.25 ppm), in the data set on Heliothis virescens (other ai alone 0.50 ppm) and in the data set on Heliothis virescens (other ai alone 1.00 ppm) was 0% each time.

As to `COC(=O)N(C(=O)N1CO[C@@]2(C(=O)OC)Cc3cc(Cl)ccc3C2=N1)c1ccc(OC(F)(F)F)cc1` [Indoxacarb], the “Observed % mortality Other ai” value was 26% and 22% in the data set with Heliothis virescens (other ai alone 0.20 ppm); 26% and 46% with Heliothis virescens (other ai alone 0.80 ppm).

Regarding `CC1(C)[C@H](C(=O)O[C@H](C#N)c2cccc(Oc3ccccc3)c2)[C@@H]1/C=C(\Cl)C(F)(F)F` (racemic) [Lambda-cyhalothrin, lambda-cyhalothrin], the mortality at 0.25 ppm is 46% in the data set on Heliothis virescens (Heliothis virescens, in Gossypium hirsutum, 72 h, read-out: Observed % mortality Other ai, other ai alone 0.25 ppm) and 4% with Myzus persicae (setting [3]). Besides, the mortality at 0.5 ppm in the data set on Heliothis virescens (Heliothis virescens, in Gossypium hirsutum, 72 h, read-out: Observed % mortality Other ai, other ai alone 0.50 ppm) is 50%; in the data set with Myzus persicae (setting [3]) it was 14%. The mortality at 1 ppm with Heliothis virescens (Heliothis virescens, in Gossypium hirsutum, 72 h, read-out: Observed % mortality Other ai, other ai alone 1.00 ppm) was found to be 46%. The “Observed % mortality Other ai” value with Heliothis virescens (other ai alone 0.50 ppm) and with Heliothis virescens (other ai alone 1.00 ppm) was 52% in each case. The mortality at 0.125 ppm with Myzus persicae (setting [3]) is 10%.

With emamectin benzoate, the “Observed % mortality Other ai” value in the data set on Spodoptera littoralis (other ai alone 0.0025 ppm) is 0%; in the data set with Spodoptera littoralis (other ai alone 0.005 ppm) it was 6%; with Spodoptera littoralis (other ai alone 0.01 ppm), 0%; in the data set on Heliothis virescens (other ai alone 0.13 ppm) it was 97% and 96%; with Heliothis virescens (other ai alone 0.25 ppm), 97% and 96% and 99%; in the data set on Heliothis virescens (other ai alone 0.50 ppm), 96% and 99%.

In the case of `CCOP(=S)(OCC)Oc1nc(Cl)c(Cl)cc1Cl` [Chlorpyrifos, chlorpyrifos], the mortality at 2.5 ppm with Heliothis virescens (Heliothis virescens, in Gossypium hirsutum, 72 h, read-out: Observed % mortality Other ai, other ai alone 2.50 ppm) was found to be 36%. In addition, in the data set on Heliothis virescens (Heliothis virescens, in Gossypium hirsutum, 72 h, read-out: Observed % mortality Other ai, other ai alone 5.00 ppm), the mortality at 5 ppm stood at 29%. Besides, in the data set on Heliothis virescens (Heliothis virescens, in Gossypium hirsutum, 72 h, read-out: Observed % mortality Other ai, other ai alone 10.00 ppm), the mortality at 10 ppm is 44%.

By mortality is commonly meant the percentage killed.
